Assay results reported in PubChem BioAssay (NCI).
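Five compound concentrations were applied to cells in 96-well plates for 48 hours; endpoints were derived by simple linear interpolation of the resulting dose-response curve. Here, GI50 denotes the concentration required for 50% inhibition of growth. The concentration for full growth arrest is given as TGI.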

Assays:
Assay in all cases: NCI-60 cell line screen, 48 h
HCT-116 colon = test system: HCT-116 colon
HOP-62 NSCLC = test system: HOP-62 NSCLC
MDA-MB-231 breast = test system: MDA-MB-231 breast
UO-31 renal = test system: UO-31 renal
RXF 393 renal = test system: RXF 393 renal
NCI/ADR-RES ovarian = test system: NCI/ADR-RES ovarian
OVCAR-3 ovarian = test system: OVCAR-3 ovarian
HL-60(TB) leukemia = test system: HL-60(TB) leukemia
A549 NSCLC = test system: A549 NSCLC
OVCAR-4 ovarian = test system: OVCAR-4 ovarian
OVCAR-5 ovarian = test system: OVCAR-5 ovarian
COLO 205 colon = test system: COLO 205 colon
A498 renal = test system: A498 renal
SK-MEL-28 melanoma = test system: SK-MEL-28 melanoma
UACC-62 melanoma = test system: UACC-62 melanoma
NCI-H226 lung = test system: NCI-H226 lung
HS 578T breast = test system: HS 578T breast
TK-10 renal = test system: TK-10 renal
SR leukemia = test system: SR leukemia
SF-295 CNS = test system: SF-295 CNS
MALME-3M melanoma = test system: MALME-3M melanoma
RPMI-8226 leukemia = test system: RPMI-8226 leukemia
U251 CNS = test system: U251 CNS
786-0 renal = test system: 786-0 renal
DU-145 prostate = test system: DU-145 prostate
HCT-15 colon = test system: HCT-15 colon
SK-OV-3 ovarian = test system: SK-OV-3 ovarian
CAKI-1 renal = test system: CAKI-1 renal
MCF7 breast = test system: MCF7 breast
SNB-75 CNS = test system: SNB-75 CNS
EKVX NSCLC = test system: EKVX NSCLC
SN12C renal = test system: SN12C renal
NCI-H522 lung = test system: NCI-H522 lung
MDA-MB-435 = test system: MDA-MB-435
IGROV1 ovarian = test system: IGROV1 ovarian
NCI-H460 lung = test system: NCI-H460 lung
HT29 colon = test system: HT29 colon
OVCAR-8 ovarian = test system: OVCAR-8 ovarian
HOP-92 NSCLC = test system: HOP-92 NSCLC
SNB-19 CNS = test system: SNB-19 CNS
SF-268 CNS = test system: SF-268 CNS
UACC-257 melanoma = test system: UACC-257 melanoma
CCRF-CEM leukemia = test system: CCRF-CEM leukemia
ACHN renal = test system: ACHN renal
SW-620 colon = test system: SW-620 colon
SF-539 CNS = test system: SF-539 CNS
HCC-2998 colon = test system: HCC-2998 colon
SK-MEL-2 melanoma = test system: SK-MEL-2 melanoma
T-47D breast = test system: T-47D breast
KM12 colon = test system: KM12 colon
LOX IMVI melanoma = test system: LOX IMVI melanoma
K-562 leukemia = test system: K-562 leukemia
MOLT-4 leukemia = test system: MOLT-4 leukemia
BT-549 breast = test system: BT-549 breast
SK-MEL-5 melanoma = test system: SK-MEL-5 melanoma
NCI-H23 lung = test system: NCI-H23 lung
PC-3 prostate = test system: PC-3 prostate
M14 melanoma = test system: M14 melanoma

In the case of CCCN1CCC(Oc2cc(Nc3nc(Nc4cccc(F)c4C(N)=O)c4cc[nH]c4n3)c(OC)cc2Cl)CC1, the GI50 (HCT-116 colon) is reported as 2.16 µM, the TGI (HCT-116 colon) is reported as 5.5 µM and the GI50 (HOP-62 NSCLC) is reported as 1.31 µM. The TGI (HOP-62 NSCLC) was 4.36 µM, the GI50 (MDA-MB-231 breast) was 2.16 µM and the TGI (MDA-MB-231 breast) was 5.52 µM. It also gave a GI50 (UO-31 renal) of 2.94 µM, a TGI (UO-31 renal) of 8.93 µM and a GI50 (RXF 393 renal) of 2.28 µM. It also gave a TGI (RXF 393 renal) of 6.03 µM, a GI50 (NCI/ADR-RES ovarian) of 3.73 µM and a TGI (NCI/ADR-RES ovarian) of 8.57 µM. It also gave a GI50 (OVCAR-3 ovarian) of 4.18 µM, a TGI (OVCAR-3 ovarian) of 7.99 µM and a GI50 (HL-60(TB) leukemia) of 2.54 µM. It also gave a TGI (HL-60(TB) leukemia) of 8.31 µM, a GI50 (A549 NSCLC) of 2.64 µM and a TGI (A549 NSCLC) of 5.95 µM. It also gave a GI50 (OVCAR-4 ovarian) of 3.67 µM, a TGI (OVCAR-4 ovarian) of 8.05 µM and a GI50 (OVCAR-5 ovarian) of 3.44 µM. It also gave a TGI (OVCAR-5 ovarian) of 7.27 µM, a GI50 (COLO 205 colon) of 0.417 µM and a TGI (COLO 205 colon) of 0.806 µM. For the same compound, the GI50 (A498 renal) was 2.95 µM, the TGI (A498 renal) was 6.47 µM and the GI50 (SK-MEL-28 melanoma) was 2.82 µM. It also gave a TGI (SK-MEL-28 melanoma) of 6.09 µM, a GI50 (UACC-62 melanoma) of 3.61 µM and a TGI (UACC-62 melanoma) of 7.09 µM. For the same compound, the GI50 (NCI-H226 lung) was 3.64 µM, the TGI (NCI-H226 lung) was 10.7 µM and the GI50 (HS 578T breast) was 3.73 µM. For the same compound, the TGI (HS 578T breast) was 10.6 µM, the GI50 (TK-10 renal) was 3.14 µM and the TGI (TK-10 renal) was 7.01 µM. It also gave a GI50 (SR leukemia) of 1.02 µM, a TGI (SR leukemia) of 6.52 µM and a GI50 (SF-295 CNS) of 3.81 µM. For the same compound, the TGI (SF-295 CNS) was 8.53 µM, the GI50 (MALME-3M melanoma) was 3.81 µM and the TGI (MALME-3M melanoma) was 8.4 µM. For the same compound, the GI50 (RPMI-8226 leukemia) was 2.11 µM, the TGI (RPMI-8226 leukemia) was 6.35 µM and the GI50 (U251 CNS) was 1.68 µM. For the same compound, the TGI (U251 CNS) was 5.21 µM, the GI50 (786-0 renal) was 3.65 µM and the TGI (786-0 renal) was 7.52 µM. The GI50 (DU-145 prostate) was 3.68 µM, the TGI (DU-145 prostate) was 7.76 µM and the GI50 (HCT-15 colon) was 1.44 µM. It also gave a TGI (HCT-15 colon) of 6.84 µM, a GI50 (SK-OV-3 ovarian) of 4.87 µM and a TGI (SK-OV-3 ovarian) of 14 µM. For the same compound, the GI50 (CAKI-1 renal) was 3.58 µM, the TGI (CAKI-1 renal) was 7.64 µM and the GI50 (MCF7 breast) was 0.907 µM. The TGI (MCF7 breast) was 3.97 µM, the GI50 (SNB-75 CNS) was 3.22 µM and the TGI (SNB-75 CNS) was 7.79 µM. The GI50 (EKVX NSCLC) was 3.1 µM, the TGI (EKVX NSCLC) was 7.41 µM and the GI50 (SN12C renal) was 3.97 µM. The TGI (SN12C renal) was 7.99 µM, the GI50 (NCI-H522 lung) was 3.98 µM and the TGI (NCI-H522 lung) was 7.9 µM. For the same compound, the GI50 (MDA-MB-435) was 1.35 µM, the TGI (MDA-MB-435) was 5.32 µM and the GI50 (IGROV1 ovarian) was 3.86 µM. It also gave a TGI (IGROV1 ovarian) of 9.22 µM, a GI50 (NCI-H460 lung) of 1.45 µM and a TGI (NCI-H460 lung) of 4.79 µM. For the same compound, the GI50 (HT29 colon) was 0.565 µM, the TGI (HT29 colon) was 1.6 µM and the GI50 (OVCAR-8 ovarian) was 4.11 µM. For the same compound, the TGI (OVCAR-8 ovarian) was 9.52 µM, the GI50 (HOP-92 NSCLC) was 0.309 µM and the TGI (HOP-92 NSCLC) was 3.42 µM. The GI50 (SNB-19 CNS) was 4.18 µM, the TGI (SNB-19 CNS) was 8.33 µM and the GI50 (SF-268 CNS) was 3.79 µM. The TGI (SF-268 CNS) was 8.32 µM, the GI50 (UACC-257 melanoma) was 3.28 µM and the TGI (UACC-257 melanoma) was 6.75 µM. It also gave a GI50 (CCRF-CEM leukemia) of 3.45 µM, a TGI (CCRF-CEM leukemia) of 10.1 µM and a GI50 (ACHN renal) of 4.01 µM. The TGI (ACHN renal) was 7.99 µM, the GI50 (SW-620 colon) was 0.785 µM and the TGI (SW-620 colon) was 3.57 µM. It also gave a GI50 (SF-539 CNS) of 4.13 µM, a TGI (SF-539 CNS) of 8.24 µM and a GI50 (HCC-2998 colon) of 0.994 µM. For the same compound, the TGI (HCC-2998 colon) was 3.84 µM, the GI50 (SK-MEL-2 melanoma) was 4.5 µM and the TGI (SK-MEL-2 melanoma) was 8.32 µM. For the same compound, the GI50 (T-47D breast) was 1.32 µM, the TGI (T-47D breast) was 3.12 µM and the GI50 (KM12 colon) was 2.72 µM. For the same compound, the TGI (KM12 colon) was 6.11 µM, the GI50 (LOX IMVI melanoma) was 1.57 µM and the TGI (LOX IMVI melanoma) was 5.31 µM. It also gave a GI50 (K-562 leukemia) of 0.62 µM, a TGI (K-562 leukemia) of 1.73 µM and a GI50 (MOLT-4 leukemia) of 3.48 µM. The TGI (MOLT-4 leukemia) was 7.97 µM, the GI50 (BT-549 breast) was 3.75 µM and the TGI (BT-549 breast) was 7.36 µM. The GI50 (SK-MEL-5 melanoma) was 1.23 µM, the TGI (SK-MEL-5 melanoma) was 2.67 µM and the GI50 (NCI-H23 lung) was 3.49 µM. It also gave a TGI (NCI-H23 lung) of 8.26 µM, a GI50 (PC-3 prostate) of 2.55 µM and a TGI (PC-3 prostate) of 6.73 µM. The GI50 (M14 melanoma) was 0.859 µM and the TGI (M14 melanoma) was 2.88 µM.
